Laboratory results published in the METLIN SMRT retention time set (Domingo-Almenara et al. 2019).

Assay: gradient 5% acetonitrile 3 min, to 50% in 2 min, to 85% in 15 min, held 3 min, 100 µL/min
Conditions: column: Zorbax Extend-C18 2.1 x 50 mm; eluents: water / acetonitrile, 0.1% formic acid
How it was run: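 Pure standards were run in mixtures of ~100 molecules by HPLC coupled to a quadrupole time-of-flight mass spectrometer. The column was a Zorbax Extend-C18 (2.1 × 50 mm, 1.8 μm) at 100 μL/min, with water and acetonitrile each containing 0.1% formic acid, in positive and negative ionization mode. Dead and dwell volumes were 40 μL and 900 μL. Retention time was taken from computationally picked adduct peaks, each manually inspected, with data collected over 3 months.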

| RP-LC retention time [s] | SMILES |
| --- | --- |
| 586 | N#CCCN1CCN(c2ccc(NC(=O)C3CCC3)c(C(=O)O)c2)CC1 |
| 764 | Fc1ccc(Cc2nc(-c3ccn4cnnc4c3)no2)cc1 |
| 708 | CCCn1c(CCc2ccccc2NS(=O)(=O)CCC)nc2ccccc21 |
| 718 | CCC(C)C(NC(=O)c1ccc2c(c1)OCO2)C(=O)Nc1nc2ccccc2[nH]1 (stereo not given) |
| 600 | CNC(=O)NC1CCN(C(=O)c2ccc(F)cc2)C1 (stereo not given) |
| 597 | CCN1CCCC1CNC(=O)CC1CCN(S(=O)(=O)c2ccc3c(c2)CCN3C(C)=O)CC1 (stereo not given) |
| 795 | Cc1nnc(-c2ccc3ccn(CC(=O)Nc4ccc(F)cc4)c3c2)o1 |
| 602 | CCOC(=O)c1cnc(SCC(=O)N2CCC(C(N)=O)CC2)nc1N |
| 688 | COc1ccc(-c2cc(N3CCC(NC(=O)c4ccccc4Br)C3)n[nH]2)cc1 (stereo not given) |
| 616 | CCOC(=O)c1noc2ncnc(NC3CCN(Cc4ccccc4)CC3)c12 |
| 750 | COc1cc(NC(=O)c2nc(C)oc2C)cc(OC)c1 |
| 650 | Nc1cc(C(F)(F)F)c(-c2cc(N3CCOCC3)nc(N3CCOCC3)n2)cn1 |
| 685 | CCC(NC(=O)c1cn2ccc(C)cc2n1)c1cccs1 (stereo not given) |
| 1240 | CCc1ccc(-c2csc(NC(=O)Cc3csc(-c4ccccc4)n3)n2)cc1 |
| 570 | CN1CCCN(C(=O)CN2CCCc3nc(C4CC4)ncc3C2=O)CC1 |
| 658 | CCCNC(=O)C1CCN(S(=O)(=O)c2cc(C(=O)N(C)C)cs2)CC1 |
| 632 | CCC1(O)C(=O)OCc2c1cc1n(c2=O)Cc2cc3c(N)cccc3nc2-1 (stereo not given) |
| 671 | CCOc1cc(C2NCCc3c2[nH]c2ccc(Cl)cc32)ccc1O (stereo not given) |
| 838 | COC(=O)c1[nH]c2c(c1C)C(=O)CC(c1cccc(OC)c1)C2 (stereo not given) |
| 1110 | COc1cc(-c2nc(-c3ccc4c(c3)oc(=O)n4C(C)C)no2)cc(OC)c1OC |
| 606 | COc1ccc(-c2nnc3ccc(SCC(=O)Nc4cc(C)on4)nn23)cc1OC |
| 617 | Cc1nc(NC(=O)Cc2c(C)[nH]c(=O)[nH]c2=O)sc1C(=O)Nc1ccccc1 |
| 747 | Cc1oc(C2CCN(C(=O)Cc3c(F)cccc3Cl)CC2)nc1C(=O)N(C)C |

| RP-LC retention time [s] | SMILES |
| --- | --- |
| 691 | Cc1cc(F)ccc1NC(=O)C1CCN(S(=O)(=O)c2c(C)[nH]c(C)c2C(=O)N2CCCC2)CC1 |
| 707 | Cc1nc(CNC(=O)C2CCN(C(=O)Nc3cccc(Br)c3)CC2)cs1 |
| 749 | O=C(Nc1ccccc1Cl)N1CCC(N2CCN(Cc3cccc(F)c3)C(=O)C2=O)CC1 |
| 829 | CCOC(=O)C(=O)Nc1nnc(SCc2nnc(-c3ccccc3C)o2)s1 |
| 855 | CCc1nnc(NC(=O)CCc2ccc(-c3ccc(F)cc3)o2)s1 |
| 1090 | Cc1ccc(CNC(=O)C2CCCN(c3nccnc3Sc3ccc(C)cc3)C2)cc1 (stereo not given) |
| 784 | CNC(=O)Nc1ccc(C2(C(=O)NCc3ccc(F)cc3Cl)CCC2)cc1 |
| 621 | CCn1c(=O)c(N2CCCC(C(=O)NCCCN3CCOCC3)C2)nc2cccnc21 (stereo not given) |
| 689 | Cc1cc(C)cc(NC(=O)Cc2cn(C)c3ncccc23)c1 |
| 1190 | Cc1ccc(-c2noc(Cc3nc(-c4ccc(C)cc4C)cs3)n2)cc1 |
| 910 | CCc1nc(OCC(=O)Nc2ccc(Br)cc2F)c2ccccc2n1 |
| 681 | CCCC(=O)Nc1ccc2c(c1)CN(C(=O)c1ccc(C#N)cc1)C(C(=O)N(C)C)C2 (stereo not given) |
| 928 | Cc1ccc(Cn2cccc2C(=O)C(=O)NC2CC2)cc1 |
| 780 | CCOC(=O)COc1cc(-c2ccccc2)nc2ccc(NC(=O)C3CCC3)cc12 |
| 1180 | Cc1sc(C)c(S(=O)(=O)NCCc2ccccc2)c1-c1cc(C(F)(F)F)on1 |
| 679 | Cc1ccc(S(=O)(=O)Nc2ccc(-c3cn4ccc(C)nc4n3)cc2)c(C)c1 |
| 900 | CCn1c(=O)c(N2CCN(C(=O)c3cccs3)CC2)nc2cccnc21 |
| 644 | CSc1ccc(NC(=O)c2cc3c(s2)CN(C2CC2)C3)cc1 |
| 561 | CCn1cc(CCNC(C)=O)c2cccnc21 |
| 911 | O=C(C1CCN(c2nc3ccc(-c4cccs4)nc3s2)CC1)N1CCCCC1 |
| 710 | Cc1cccc(N2CCN(c3cc(C(=O)O)c4cc(NC(=O)CC(C)C)ccc4n3)CC2)c1 |
| 751 | Nc1nccc(Oc2ccc(NC(=O)c3c[nH]cc(-c4ccc(F)cc4)c3=O)cc2F)c1Cl |
| 724 | O=C(NCC(c1cccnc1)c1c[nH]c2ccccc12)Nc1ccc(Br)cc1 (stereo not given) |

| RP-LC retention time [s] | SMILES |
| --- | --- |
| 614 | Cc1nn(CC(=O)NCc2cccnc2)c(=O)c2nc(-c3ccccc3)sc12 |
| 982 | O=C(Nc1cc(-c2ccsc2)no1)c1ccc(F)c(F)c1 |
| 794 | CCCC(=O)Nc1nnc(SCc2nnc(-c3ccc4c(c3)OCO4)o2)s1 |
| 718 | CCC(C)NC(=O)c1ccc(-c2nnc3ccc(NC(=O)C4CC4)cn23)cc1 (stereo not given) |
| 985 | CCOc1ccc(-n2ccnc(NC(=O)Nc3ccc(F)cc3)c2=O)cc1 |
| 674 | O=C(NCc1ccc(F)cc1)Nc1cccc(-c2ccc(N3CCOCC3)nn2)c1 |
| 593 | CC(C)c1nnc(C2CN(Cc3cccc(C(F)(F)F)c3)CC23CCN(C)CC3)o1 (stereo not given) |
| 747 | COC(=O)c1ncn2c1C(=O)N(Cc1ccc(C)cc1)C(C)(C(=O)NCc1ccccc1)C2 (stereo not given) |
| 553 | CC(C)NC(=O)c1cc(-c2ccncc2)n[nH]1 |
| 1110 | Cc1nc(-c2csc(S(=O)(=O)N3CCCC(C(=O)Nc4cccc5c4CCCC5)C3)c2)no1 (stereo not given) |
| 628 | Cc1cc2ccccc2n2c(SCC(=O)NCC3CCCO3)nnc12 (stereo not given) |
| 582 | Fc1ccc(Nc2ncnc3nc[nH]c23)cc1 |
| 1270 | CCn1cccc1-c1nc(C)c(C(=O)Nc2ccc(C)c(C)c2)s1 |
| 675 | Nc1cc(C2CCN(C(=O)c3ccc(F)cc3)CC2)no1 |
| 1270 | Cc1ccc(C2Cn3nnc(-c4nc(-c5ccccc5Br)no4)c3CO2)c(C)c1 (stereo not given) |
| 646 | O=C(NCCCN1CCc2ccccc2C1)c1ccnc(-c2cccs2)c1 |
| 950 | Cc1ccc(C(=O)Nc2cccn3nc(C(C)C)nc23)cc1 |
| 783 | Cc1ccc(CNC(=O)C2(C)CN(S(=O)(=O)c3ccccc3)CC(=O)N2C2CC2)cc1 (stereo not given) |
| 822 | COc1ccc(-c2cc(C(=O)Nc3ccc4c(c3)CCC(=O)N4)c3ccccc3n2)cc1 |
| 649 | CCOc1ccc(C(C)NC(=O)C2CCN(c3cncnc3N3CCOCC3)CC2)cc1 (stereo not given) |
| 771 | CCCNc1cc(-n2nc(C)cc2C)ncn1 |
| 1160 | Cc1ccccc1N1CCN(Cc2nc(-c3ccc(N4CCCC(C)C4)nc3)no2)CC1 (stereo not given) |
| 714 | COC(=O)c1ncn2c1C(=O)N(Cc1ccc(F)cc1)C(C)(C(=O)NCc1ccccc1)C2 (stereo not given) |

| RP-LC retention time [s] | SMILES |
| --- | --- |
| 791 | Cc1cc2c(cc1S(=O)(=O)N1CCCC1C(=O)NCc1ccccc1Cl)OCC(=O)N2 (stereo not given) |
| 566 | CCCN1CCN(C(=O)c2nc(N3CCCCC3)c3c(C)cc(C)nc3n2)CC1 |
| 826 | CCNC(=O)c1cnn(-c2cc(-c3nc(C4CC4)no3)ccn2)c1C |
| 842 | CCc1ccc(C2=C(C)C(N3CCCN(C(=O)NCC(C)C)CC3)=NS2(=O)=O)cc1 |
| 896 | CCOc1ccc(NC(=O)Cn2c(C)cc(-c3nnc(C4CCC4)o3)c2C)cc1 |
| 814 | O=C(CCn1c(N2CCCC2)nc2ccsc2c1=O)N1CCN(c2ccccc2)CC1 |
| 690 | COC1CCOC2(CCN(C(=O)Nc3ccc4c(c3)OCCO4)CC2)C1 (stereo not given) |
| 912 | O=C1N(C2CCN(S(=O)(=O)c3cccnc3)CC2)C(c2ccccc2)C12CCCC2 (stereo not given) |
| 896 | CCCCCNC(=O)c1ccc2c(c1)CCCN2S(=O)(=O)CC |
| 680 | COc1cccc(-c2nc(-c3ccc4c(c3)ncn4CCN3CCCCC3)no2)c1OC |
| 666 | Cn1c(N2CCN(C(=O)COc3ccc(Cl)cc3)CC2)cc(=O)n(C)c1=O |
| 840 | CCCn1cc(C(=O)N2CCc3ccccc32)c2nn(-c3ccccc3)c(=O)c-2c1 |
| 786 | O=C(Nc1cccc(F)c1)c1nnc(C(=O)N2CCC(C(=O)NC3CCCC3)CC2)s1 |
| 928 | O=C(CNC(=O)c1cc2ccccc2o1)Nc1cccc(C(F)(F)F)c1 |
| 767 | CSc1ccc(NC(=O)C2CCN(c3cnc4nc(C)c(C)nc4c3)CC2)cc1 |
| 675 | Cc1noc(C2CN(C(=O)c3cc4ccccc4[nH]3)C2)n1 |
| 669 | Cc1ccc(F)c2c(=O)c3c([nH]c12)CCN(CC(=O)NC1CCCC1)C3 |
| 800 | O=C(Cn1ccc2sccc2c1=O)Nc1cccc(Cl)c1 |
| 670 | COc1ccc(C2CN(S(=O)(=O)c3ccccc3F)CCN2C)cc1 (stereo not given) |
| 1110 | COc1cc(OC)c(NC(=O)Cn2cccc2-c2nc(-c3ccc4c(c3)OCO4)no2)cc1Cl |

| SMILES | RP-LC retention time [s] |
| --- | --- |
| COc1ccc2c(c1)C1(CCN(S(=O)(=O)c3ccc(C#N)cc3)C1)C(=O)N2C (stereo not given) | 880 |
